Source: PubChem BioAssay (NCI)
Several values for one entry are separate records, joined by “and”; a condition that tells them apart may be missing. Identical values can stand only once.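 96-well plates; 48 h exposure; 5 concentrations. Endpoints by linear interpolation between flanking doses. Not reached: highest tested concentration assigned. Here, GI50 denotes the concentration required for 50% inhibition of growth. Definition used: TGI = concentration required for complete inhibition of growth.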

Tests used:
Assay in all cases: inhibition of tumour cell growth, NCI panel, 48 h
SK-OV-3 ovarian = system: SK-OV-3 ovarian
UO-31 renal = system: UO-31 renal
LOX IMVI melanoma = system: LOX IMVI melanoma
NCI-H460 lung = system: NCI-H460 lung
ACHN renal = system: ACHN renal
MDA-MB-231 breast = system: MDA-MB-231 breast
TK-10 renal = system: TK-10 renal
MOLT-4 leukemia = system: MOLT-4 leukemia
PC-3 prostate = system: PC-3 prostate
M14 melanoma = system: M14 melanoma

## COc1cccc(/C=C/c2ccnc3ccccc23)c1OC
SK-OV-3 ovarian
  TGI: > 10 µM
UO-31 renal
  TGI: > 10 µM
LOX IMVI melanoma
  TGI: > 10 µM
NCI-H460 lung
  TGI: > 10 µM
ACHN renal
  TGI: > 10 µM
MDA-MB-231 breast
  TGI: > 10 µM
TK-10 renal
  TGI: > 10 µM
MOLT-4 leukemia
  TGI: > 10 µM
PC-3 prostate
  TGI: > 10 µM
M14 melanoma
  TGI: > 10 µM

## CCN(CC)c1ccc(C2NC(=O)c3ccccc3N2)cc1 (stereo unspecified)
SK-OV-3 ovarian
  TGI: > 100 µM
UO-31 renal
  TGI: > 100 µM
LOX IMVI melanoma
  TGI: > 100 µM
NCI-H460 lung
  TGI: 7.14 µM
ACHN renal
  TGI: > 100 µM
MDA-MB-231 breast
  TGI: 7.76 µM
TK-10 renal
  TGI: > 100 µM
MOLT-4 leukemia
  TGI: > 100 µM
PC-3 prostate
  TGI: > 100 µM
M14 melanoma
  TGI: > 100 µM

## Cc1ccc(NC(=O)Nc2c(Cl)cccc2Cl)cn1
SK-OV-3 ovarian
  GI50: 5.97 µM
  TGI: > 100 µM
UO-31 renal
  GI50: 47 µM
  TGI: > 100 µM
LOX IMVI melanoma
  GI50: 21.3 µM
  TGI: > 100 µM
NCI-H460 lung
  GI50: 4.91 µM
  TGI: 36.1 µM
ACHN renal
  GI50: 51.5 µM
  TGI: > 100 µM
MDA-MB-231 breast
  GI50: 7.66 µM
  TGI: > 100 µM
TK-10 renal
  GI50: 18.1 µM
  TGI: 41.6 µM
MOLT-4 leukemia
  GI50: 6.38 µM
  TGI: 32.4 µM
PC-3 prostate
  GI50: 25.2 µM
  TGI: > 100 µM
M14 melanoma
  GI50: 12 µM
  TGI: > 100 µM

## COc1ccc(C(=O)O[C@H]2[C@H](O[C@H]3[C@@H](O)COC(O[C@H]4C[C@H]5[C@@H]6CC=C7C[C@@H](O)CC[C@]7(C)[C@H]6CC[C@]5(C)[C@H]4[C@H](C)C(=O)CCC(C)C)[C@@H]3OC(C)=O)OC[C@@H](O)[C@@H]2O)c(C)c1 (stereo partly specified)
SK-OV-3 ovarian
  GI50: 0.0246 µM
  TGI: 9.5 µM
UO-31 renal
  GI50: < 0.01 µM
  TGI: 0.0335 µM
LOX IMVI melanoma
  GI50: < 0.01 µM
  TGI: 0.0173 µM
NCI-H460 lung
  GI50: < 0.01 µM
  TGI: 3.23 µM
ACHN renal
  GI50: 0.0312 µM
  TGI: 38.9 µM
MDA-MB-231 breast
  GI50: 0.146 µM
  TGI: 18.1 µM
TK-10 renal
  GI50: 0.27 µM
  TGI: 34.8 µM
MOLT-4 leukemia
  GI50: < 0.01 µM
  TGI: 11.2 µM
PC-3 prostate
  GI50: < 0.01 µM
  TGI: 2.14 µM
M14 melanoma
  GI50: < 0.01 µM
  TGI: 0.0102 µM

## CCN(CC)c1ccc2nc3c4ccccc4c(=O)cc-3n(-c3ccccc3)c2c1
SK-OV-3 ovarian
  GI50: 1.91 µM
  TGI: 5.92 µM
UO-31 renal
  GI50: 0.786 µM
  TGI: 3.48 µM
LOX IMVI melanoma
  GI50: 1.62 µM
  TGI: 3.72 µM
NCI-H460 lung
  GI50: 2.26 µM
  TGI: 6.46 µM
ACHN renal
  GI50: 2.13 µM
  TGI: 14.9 µM
MDA-MB-231 breast
  GI50: 2.22 µM
  TGI: 8.2 µM
TK-10 renal
  GI50: 1.77 µM
  TGI: 5.63 µM
MOLT-4 leukemia
  GI50: 2.36 µM
  TGI: 7.48 µM
PC-3 prostate
  GI50: 1.9 µM
  TGI: 7.58 µM
M14 melanoma
  GI50: 1.91 µM
  TGI: 3.8 µM

## O=c1c2ccccc2nc(-c2ccccc2Cl)n1-c1nnc(C(F)(F)F)s1
SK-OV-3 ovarian
  GI50: 4.01 µM
  TGI: 39 µM
UO-31 renal
  GI50: 2.75 µM
  TGI: 11.6 µM
LOX IMVI melanoma
  GI50: 3.37 µM
  TGI: 14.2 µM
NCI-H460 lung
  GI50: 3.38 µM
  TGI: 23.3 µM
ACHN renal
  GI50: 3.74 µM
  TGI: 27.7 µM
MDA-MB-231 breast
  GI50: 2.59 µM
  TGI: 9.38 µM
TK-10 renal
  GI50: 3.99 µM
  TGI: 24 µM
MOLT-4 leukemia
  GI50: 3.99 µM
  TGI: 20.4 µM
PC-3 prostate
  GI50: 2.76 µM
  TGI: 14.1 µM
M14 melanoma
  GI50: 4.17 µM
  TGI: 23.7 µM

## COc1cccc2nc3ccccc3nc12
SK-OV-3 ovarian
  TGI: > 100 µM
UO-31 renal
  TGI: 72.3 µM
LOX IMVI melanoma
  TGI: > 100 µM
NCI-H460 lung
  TGI: > 100 µM
ACHN renal
  TGI: 63.4 µM
MDA-MB-231 breast
  TGI: > 100 µM
TK-10 renal
  TGI: > 100 µM
MOLT-4 leukemia
  TGI: > 100 µM
PC-3 prostate
  TGI: > 100 µM
M14 melanoma
  TGI: > 100 µM

## CCN(CC)CCN1C(=O)C2C3C(=O)CC(C)(CC3C)C2C1=O (stereo unspecified)
SK-OV-3 ovarian
  GI50: > 100 µM
  TGI: > 100 µM
UO-31 renal
  GI50: > 100 µM
  TGI: > 100 µM
LOX IMVI melanoma
  GI50: > 100 µM
  TGI: > 100 µM
ACHN renal
  GI50: > 100 µM
  TGI: > 100 µM
MDA-MB-231 breast
  GI50: > 100 µM
  TGI: > 100 µM
TK-10 renal
  GI50: > 100 µM
  TGI: > 100 µM
MOLT-4 leukemia
  GI50: > 100 µM
  TGI: > 100 µM
PC-3 prostate
  GI50: > 100 µM
  TGI: > 100 µM
M14 melanoma
  GI50: > 100 µM
  TGI: > 100 µM

## CC[C@]1(O)CC2CN(CCc3c([nH]c4ccccc34)[C@@](C(=O)OC)(c3cc4c(cc3OC)N(C=O)[C@H]3[C@@](O)(C(=O)OC)[C@H](OC(C)=O)[C@]5(CC)C=CCN6CC[C@]43[C@@H]65)C2)C1 (stereo partly specified)
SK-OV-3 ovarian
  GI50: < 0.005 µM
  TGI: 0.0185 µM
UO-31 renal
  GI50: 0.519 µM
  TGI: > 50 µM
LOX IMVI melanoma
  GI50: 0.00808 µM
  TGI: > 50 µM
NCI-H460 lung
  GI50: < 0.005 µM
  TGI: > 50 µM
ACHN renal
  GI50: 0.235 µM
  TGI: > 50 µM
MDA-MB-231 breast
  GI50: < 0.005 µM
  TGI: 2.73 µM
TK-10 renal
  GI50: 0.0192 µM
  TGI: 9.86 µM
MOLT-4 leukemia
  GI50: < 0.005 µM
PC-3 prostate
  GI50: 0.0059 µM
  TGI: > 50 µM
M14 melanoma
  GI50: 0.00632 µM
  TGI: 0.679 µM

## NC(=O)CC1(O)C=C(Br)C(=O)C(Br)=C1
SK-OV-3 ovarian
  GI50: 17.9 µM
  TGI: 32.3 µM
UO-31 renal
  GI50: 2.17 µM
  TGI: 11.2 µM
LOX IMVI melanoma
  GI50: 3.65 µM
  TGI: 13 µM
NCI-H460 lung
  GI50: 18.5 µM
  TGI: 37 µM
ACHN renal
  GI50: 3.44 µM
  TGI: 12.3 µM
MDA-MB-231 breast
  GI50: 6.85 µM
  TGI: 20.2 µM
TK-10 renal
  GI50: 1.65 µM
  TGI: 4.2 µM
MOLT-4 leukemia
  GI50: 2.29 µM
  TGI: 5.35 µM
PC-3 prostate
  GI50: 7.65 µM
  TGI: 24.9 µM
M14 melanoma
  GI50: 2.64 µM
  TGI: > 32.8 µM

## COc1ccc(-c2[nH]nc(N)c2-c2cc(OC)c3c(c2)OCO3)cc1
SK-OV-3 ovarian
  GI50: 5.74 µM
  TGI: > 100 µM
UO-31 renal
  GI50: 4.35 µM
  TGI: 69.7 µM
LOX IMVI melanoma
  GI50: 4.86 µM
  TGI: > 100 µM
NCI-H460 lung
  GI50: 3.38 µM
  TGI: > 100 µM
ACHN renal
  GI50: 6.88 µM
  TGI: > 100 µM
MDA-MB-231 breast
  GI50: 5.5 µM
  TGI: > 100 µM
TK-10 renal
  GI50: 8.42 µM
  TGI: 60.1 µM
MOLT-4 leukemia
  GI50: 3.73 µM
  TGI: 37.5 µM
PC-3 prostate
  GI50: 14.3 µM
  TGI: > 100 µM
M14 melanoma
  GI50: 2.55 µM
  TGI: 7.24 µM

## O=C1C=CC(=Nc2cccc3c(N=C4C=CC(=O)O4)cccc23)O1
SK-OV-3 ovarian
  TGI: > 100 µM
UO-31 renal
  TGI: > 100 µM
LOX IMVI melanoma
  TGI: 91.2 µM
NCI-H460 lung
  TGI: > 100 µM
ACHN renal
  TGI: 78.5 µM
MDA-MB-231 breast
  TGI: > 100 µM
TK-10 renal
  TGI: 33.3 µM
MOLT-4 leukemia
  TGI: 19.8 µM
PC-3 prostate
  TGI: > 100 µM
M14 melanoma
  TGI: 87.8 µM

## Nc1cc(C(F)(F)F)c(-c2cc(N3CCOCC3)nc(N3CCOCC3)n2)cn1
SK-OV-3 ovarian
  GI50: 0.235 µM and 0.654 µM
  TGI: 1.58 µM and 2.94 µM
UO-31 renal
  GI50: 0.309 µM and 0.527 µM
LOX IMVI melanoma
  GI50: 0.807 µM and 0.907 µM
  TGI: > 33.4 µM
NCI-H460 lung
  GI50: 0.646 µM and 0.451 µM
  TGI: 7.27 µM and 12.4 µM
ACHN renal
  GI50: 0.906 µM and 1.14 µM
  TGI: > 100 µM
MDA-MB-231 breast
  GI50: 1.26 µM and 2.06 µM
  TGI: > 8.48 µM and 11.9 µM
TK-10 renal
  GI50: 0.303 µM and 0.338 µM
  TGI: 2.75 µM and 2.15 µM
MOLT-4 leukemia
  GI50: 0.883 µM and 0.814 µM
  TGI: > 100 µM
PC-3 prostate
  GI50: 0.44 µM and 0.49 µM
  TGI: > 9.49 µM and 6.09 µM
M14 melanoma
  GI50: 0.669 µM and 0.644 µM
  TGI: 4.04 µM and 3.88 µM

## NC1=NC(=O)/C(=C/c2ccc3ncccc3c2)S1
SK-OV-3 ovarian
  GI50: > 25 µM
  TGI: > 25 µM
UO-31 renal
  GI50: > 25 µM
  TGI: > 25 µM
LOX IMVI melanoma
  GI50: > 25 µM
  TGI: > 25 µM
NCI-H460 lung
  GI50: > 25 µM
  TGI: > 25 µM
ACHN renal
  GI50: > 25 µM
  TGI: > 25 µM
MDA-MB-231 breast
  GI50: > 25 µM
  TGI: > 25 µM
TK-10 renal
  GI50: > 25 µM
  TGI: > 25 µM
MOLT-4 leukemia
  GI50: > 25 µM
  TGI: > 25 µM
PC-3 prostate
  GI50: > 25 µM
  TGI: > 25 µM
M14 melanoma
  GI50: > 25 µM
  TGI: > 25 µM
